This is an account of results in ChEMBL document CHEMBL1152824, “A novel insertion sequence, ISPA26, in oprD of Pseudomonas aeruginosa is associated with carbapenem resistance” (2007).

The test system of assay [1] is Pseudomonas aeruginosa. The experiment in a line: Antibacterial activity against Pseudomonas aeruginosa blood isolate 1 carrying insertion sequence ISPa26 by disk susceptibility test. Format: functional.
Assay [2] deals with Pseudomonas aeruginosa. Description: Antibacterial activity against Pseudomonas aeruginosa pus isolate 6 carrying insertion sequence ISPa26 by disk susceptibility test. Format: functional.
Assay [3] relates to Pseudomonas aeruginosa. The experiment in a line: Antibacterial activity against Pseudomonas aeruginosa tracheal aspirate isolate 7 carrying insertion sequence ISPa26 by disk susceptibility test. Format: functional.
For assay [4], the system named is Pseudomonas aeruginosa. Description: Antibacterial activity against Pseudomonas aeruginosa tracheal aspirate isolate 8 carrying insertion sequence ISPa26 inserted into oprD gene by disk susceptibility test. Format: functional.
Assay [5] deals with Pseudomonas aeruginosa. Description: Antibacterial activity against Pseudomonas aeruginosa tracheal aspirate isolate 12 carrying insertion sequence ISPa26 by disk susceptibility test. Format: functional.
The test system of assay [6] is Pseudomonas aeruginosa. The experiment in a line: Antibacterial activity against Pseudomonas aeruginosa cystic fibrosis sputum isolate 286 carrying insertion sequence ISPa26 by disk susceptibility test. Format: functional.
For assay [7], the system named is Pseudomonas aeruginosa. The experiment in a line: microbe, parasite or virus in culture.
Description: Antibacterial activity against Pseudomonas aeruginosa cystic fibrosis sputum isolate 529 carrying insertion sequence ISPa26 by disk susceptibility test

Each structure is given as a SMILES string. Converted amounts (≈) assume the structure as drawn. A value given as a limit tells only on which side of the number the result lay.

Regarding `C[C@@H](O)[C@H]1C(=O)N2C(C(=O)O)=C(SCCNC=N)C[C@H]12` [IMIPENEM ANHYDROUS], the MIC was more than 32 µg/mL against Pseudomonas aeruginosa [1]; more than 32 µg/mL in the assay on Pseudomonas aeruginosa [2]; more than 32 µg/mL in the assay with Pseudomonas aeruginosa [3]; more than 32 µg/mL against Pseudomonas aeruginosa [4]; 2 µg/mL (≈ 6.68 µM) against Pseudomonas aeruginosa [5]; more than 32 µg/mL in the assay on Pseudomonas aeruginosa [6]. This molecule yielded an MIC against Pseudomonas aeruginosa [7] of 1 µg/mL (≈ 3.34 µM).

Turning to `C[C@@H](O)[C@H]1C(=O)N2C(C(=O)O)=C(S[C@@H]3CN[C@H](C(=O)N(C)C)C3)[C@H](C)[C@H]12` [MEROPENEM], the MIC against Pseudomonas aeruginosa [1] is more than 32 µg/mL; against Pseudomonas aeruginosa [2] it was 6 µg/mL (≈ 15.6 µM); in the assay on Pseudomonas aeruginosa [3], 6 µg/mL (≈ 15.6 µM); against Pseudomonas aeruginosa [4], more than 32 µg/mL; in the assay with Pseudomonas aeruginosa [5], 3 µg/mL (≈ 7.82 µM); in the assay on Pseudomonas aeruginosa [6], more than 32 µg/mL. This molecule yielded an MIC against Pseudomonas aeruginosa [7] of 2 µg/mL (≈ 5.22 µM).
